According to US9796741B2 (Achillion Pharmaceuticals, Inc., priority 2014, dated 2017):
Like-named read-outs stand apart in the source and are kept apart here.

Target: Human factor D (Homo sapiens (Human), UniProt P00746)
Experiment: Human Factor D Assay
Assay type: biochemical
Method in brief: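 Serum-purified factor D (80 nM final) preincubated 5 min at room temperature with compound in 50 mM Tris, 1M NaCl, pH 7.5. Z-L-Lys-SBzl and DTNB added at 100 μM each; OD405 followed kinetically over 30 min. IC50 by non-linear regression of % inhibition.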

[1] = human factor D 80 nM, substrate Z-L-Lys-SBzl, DTNB

Human factor D, sequence (P00746 26-253): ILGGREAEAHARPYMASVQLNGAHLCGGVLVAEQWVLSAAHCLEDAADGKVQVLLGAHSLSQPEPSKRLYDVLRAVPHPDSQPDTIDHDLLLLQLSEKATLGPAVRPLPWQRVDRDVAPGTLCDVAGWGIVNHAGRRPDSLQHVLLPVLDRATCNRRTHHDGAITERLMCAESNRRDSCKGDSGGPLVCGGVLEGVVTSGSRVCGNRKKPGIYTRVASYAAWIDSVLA

Row | SMILES | IC50 [1] [µM] | IC50 [µM]
1 | COc1ncc(-c2ccc3c(c2)c(C(N)=O)nn3CC(=O)N2C[C@H](F)C[C@H]2C(=O)Nc2cccc(Cl)n2)cn1 [Compound 30, 1-(2-((2S,4R)-2-(6-chloropyridin-2-ylcarbamoyl)-4-fluoropyrrolidin-1-yl)-2-oxoethyl)-5-(2-methoxypyrimidin-5-yl)-1H-indazole-3-carboxamide] | < 1 | 
2 | CC(=O)Nc1ncc(-c2ccc3c(c2)c(C(C)=O)cn3CC(=O)N2C[C@H](F)C[C@H]2C(=O)Nc2cccc(Br)n2)cn1 [Compound 118, (2S,4R)-1-(2-(5-(2-acetamidopyrimidin-5-yl)-3-acetyl-1H-indol-1-yl)acetyl)-N-(6-bromopyridin-2-yl)-4-fluoropyrrolidine-2-carboxamide] | < 1 | 
3 | NC(=O)c1nn(CC(=O)N2C[C@H](F)C[C@H]2C(=O)Nc2ccc3ncsc3c2)c2ccc(-c3ccnnc3)cc12 [Compound 50, 1-(2-((2S,4R)-2-(benzo[d]thiazol-6-ylcarbamoyl)-4-fluoropyrrolidin-1-yl)-2-oxoethyl)-5-(pyridazin-4-yl)-1H-indazole-3-carboxamide] | > 10 | 
4 | CC(=O)c1cn(CC(=O)N2C[C@H](F)C[C@H]2C(=O)Nc2cccc(-c3ncccc3Cl)c2F)c2ccc(-c3cnc(C)nc3)cc12 [Compound 164, (2S,4R)-1-(2-(3-acetyl-5-(2-methylpyrimidin-5-yl)-1H-indol-1-yl)acetyl)-N-(3-(3-chloropyridin-2-yl)-2-fluorophenyl)-4-fluoropyrrolidine-2-carboxamide] | < 1 | 
5 | NC(=O)c1nn(CC(=O)N2C[C@H](F)C[C@H]2C(=O)Nc2cccc(Br)n2)c2ccc(-c3ccc(N4CCOCC4)cc3)cc12 [Compound 3, 1-(2-((2S,4R)-2-((6-Bromopyridin-2-yl)carbamoyl)-4-fluoropyrrolidin-1-yl)-2-oxoethyl)-5-(4-morphlinophenyl)-1H-indazole-3-carboxamide] | < 1 | 
6 | CC(=O)c1cn(CC(=O)N2C[C@H](F)C[C@H]2C(=O)Nc2nc(-c3c(C)nc4sccn34)cs2)c2ccc(-c3ccnnc3)cc12 [Compound 57, (2S,4R)-1-(2-(3-acetyl-5-(pyridazin-4-yl)-1H-indol-1-yl)acetyl)-4-fluoro-N-(4-(6-methylimidazo[2,1-b]thiazol-5-yl)thiazol-2-yl)pyrrolidine-2-carboxamide] | > 10 | 
7 | CC(=O)c1cn(CC(=O)N2C[C@H](F)C[C@H]2C(=O)Nc2c[nH]nc2-c2ccc(Cl)cc2Cl)c2ccc(-c3ccnnc3)cc12 [Compound 156, (2S,4R)-1-(2-(3-acetyl-5-(pyridazin-4-yl)-1H-indol-1-yl)acetyl)-N-(3-(2,4-dichlorophenyl)-1H-pyrazol-4-yl)-4-fluoropyrrolidine-2-carboxamide] | > 10 | 
8 | CCN1Cc2ccc(NC(=O)[C@@H]3C[C@@H](F)CN3C(=O)Cn3cc(C(C)=O)c4cc(-c5ccnnc5)ccc43)cc2C1=O [Compound 49, (2S,4R)-1-(2-(3-acetyl-5-(pyridazin-4-yl)-1H-indol-1-yl)acetyl)-N-(2-ethyl-3-oxoisoindolin-5-yl)-4-fluoropyrrolidine-2-carboxamide] |  | 1 to 10
9 | NC(=O)c1nn(CC(=O)N2C[C@H](F)C[C@H]2C(=O)Nc2c[nH]nc2-c2ccc(Cl)cc2Cl)c2ccc(-c3ccnnc3)cc12 [Compound 94, 1-(2-((2S,4R)-2-(3-(2,4-dichlorophenyl)-1H-pyrazol-4-ylcarbamoyl)-4-fluoropyrrolidin-1-yl)-2-oxoethyl)-5-(pyridazin-4-yl)-1H-indazole-3-carboxamide] | > 10 | 
10 | NC(=O)c1nn(CC(=O)N2C[C@H](F)C[C@H]2C(=O)Nc2cncc(Cl)n2)c2ccc(-c3ccnnc3)cc12 [Compound 89, 1-(2-((2S,4R)-2-(6-chloropyrazin-2-ylcarbamoyl)-4-fluoropyrrolidin-1-yl)-2-oxoethyl)-5-(pyridazin-4-yl)-1H-indazole-3-carboxamide] | < 1 | 
11 | NC(=O)c1nn(CC(=O)N2C[C@H](F)C[C@H]2C(=O)NCc2cccc(Cl)c2)c2ccc(-c3ccnnc3)cc12 [Compound 45, 1-(2-((2S,4R)-2-(3-chlorobenzylcarbamoyl)-4-fluoropyrrolidin-1-yl)-2-oxoethyl)-5-(pyridazin-4-yl)-1H-indazole-3-carboxamide] | < 1 | 
12 | Cc1cc(NC(=O)[C@@H]2C[C@@H](F)CN2C(=O)Cn2nc(C(N)=O)c3cc(-c4ccnnc4)ccc32)n2nc(C(F)(F)F)nc2n1 [Compound 113, 1-(2-((2S,4R)-4-fluoro-2-(5-methyl-2-(trifluoromethyl)-[1,2,4]triazolo[1,5-a]pyrimidin-7-ylcarbamoyl)pyrrolidin-1-yl)-2-oxoethyl)-5-(pyridazin-4-yl)-1H-indazole-3-carboxamide] | > 10 | 
13 | NC(=O)c1nn(CC(=O)N2C[C@H](F)C[C@H]2C(=O)NCc2cccc(Cl)c2F)c2cnc(-c3cncnc3)cc12 [Compound 18, 1-(2-((2S,4R)-2-(3-chloro-2-fluorobenzylcarbamoyl)-4-fluoropyrrolidin-1-yl)-2-oxoethyl)-5-(pyrimidin-5-yl)-1H-pyrazolo[3,4-c]pyridine-3-carboxamide] | < 1 | 
14 | NC(=O)c1nn(CC(=O)N2C[C@H](F)C[C@H]2C(=O)Nc2cccc(-c3ccccc3Cl)c2F)c2ccc(-c3cn[nH]c3)cc12 [Compound 1] | < 1 | 
15 | CC(=O)c1cn(CC(=O)N2C[C@H](F)C[C@H]2C(=O)Nc2cccc(-c3ccccc3Cl)c2F)c2ccc(-c3cnc(C)nc3)cc12 [Compound 102, (2S,4R)-1-(2-(3-acetyl-5-(2-methylpyrimidin-5-yl)-1H-indol-1-yl)acetyl)-N-(2′-chloro-2-fluorobiphenyl-3-yl)-4-fluoropyrrolidine-2-carboxamide] | < 1 | 
16 | CC(=O)c1cn(CC(=O)N2C[C@H](F)C[C@H]2C(=O)Nc2ccc(CNC(=O)OCC3c4ccccc4-c4ccccc43)cc2)c2ccc(-c3ccnnc3)cc12 [Compound 61] | > 10 | 
17 | COc1ncc(-c2ccc3c(c2)c(C(C)=O)cn3CC(=O)N2C[C@H](F)C[C@H]2C(=O)Nc2cccc(-c3ccccc3Cl)c2F)cn1 [Compound 27, (2S,4R)-1-(2-(3-acetyl-5-(2-methoxypyrimidin-5-yl)-1H-indol-1-yl)acetyl)-N-(2′-chloro-2-fluoro-[1,1′-biphenyl]-3-yl)-4-fluoropyrrolidine-2-carboxamide] | < 1 | 
18 | CC(=O)c1cn(CC(=O)N2C[C@H](F)C[C@H]2C(=O)Nc2cccc(-c3ccccc3Cl)c2F)c2ccc(-c3ccc(C)nc3)cc12 [Compound 151, (2S,4R)-1-(2-(3-acetyl-5-(6-methylpyridin-3-yl)-1H-indol-1-yl)acetyl)-N-(2′-chloro-2-fluorobiphenyl-3-yl)-4-fluoropyrrolidine-2-carboxamide] | < 1 | 
19 | CC(=O)c1cn(CC(=O)N2C[C@H](F)C[C@H]2C(=O)Nc2cccc(Br)n2)c2ccc(-c3ccc(C)nc3)cc12 [Compound 120, (2S,4R)-1-(2-(3-acetyl-5-(6-methylpyridin-3-yl)-1H-indol-1-yl)acetyl)-N-(6-bromopyridin-2-yl)-4-fluoropyrrolidine-2-carboxamide] | < 1 | 
20 | NC(=O)c1nn(CC(=O)N2C[C@H](F)C[C@H]2C(=O)NCc2nc3ccccc3s2)c2ccc(-c3ccnnc3)cc12 [Compound 52, 1-(2-((2S,4R)-2-(benzo[d]thiazol-2-ylmethylcarbamoyl)-4-fluoropyrrolidin-1-yl)-2-oxoethyl)-5-(pyridazin-4-yl)-1H-indazole-3-carboxamide] | > 10 | 
21 | NC(=O)c1nn(CC(=O)N2C[C@H](F)C[C@H]2C(=O)Nc2cccnc2)c2ccc(-c3ccnnc3)cc12 [Compound 47, 1-(2-((2S,4R)-4-fluoro-2-(pyridin-3-ylcarbamoyl)pyrrolidin-1-yl)-2-oxoethyl)-5-(pyridazin-4-yl)-1H-indazole-3-carboxamide] | > 10 | 
22 | CC(=O)c1cn(CC(=O)N2C[C@H](F)C[C@H]2C(=O)NC2CCCN(c3cc(C)ccc3F)C2=O)c2ccc(-c3ccnnc3)cc12 (stereo partly drawn) [Compound 125, (2S,4R)-1-(2-(3-acetyl-5-(pyridazin-4-yl)-1H-indol-1-yl)acetyl)-4-fluoro-N-(1-(2-fluoro-5-methylphenyl)-2-oxopiperidin-3-yl)pyrrolidine-2-carboxamide] |  | 1 to 10
23 | NC(=O)c1nn(CC(=O)N2C[C@H](F)C[C@H]2C(=O)Nc2nnc(-c3ccccc3Cl)s2)c2ccc(-c3ccnnc3)cc12 [Compound 115, 1-(2-((2S,4R)-2-(5-(2-chlorophenyl)-1,3,4-thiadiazol-2-ylcarbamoyl)-4-fluoropyrrolidin-1-yl)-2-oxoethyl)-5-(pyridazin-4-yl)-1H-indazole-3-carboxamide] | > 10 | 
24 | CC(=O)c1cn(CC(=O)N2C[C@H](F)C[C@H]2C(=O)Nc2ccccc2-c2nc3ccccc3s2)c2ccc(-c3ccnnc3)cc12 [Compound 34, (2S,4R)-1-(2-(3-acetyl-5-(pyridazin-4-yl)-1H-indol-1-yl)acetyl)-N-(2-(benzo[d]thiazol-2-yl)phenyl)-4-fluoropyrrolidine-2-carboxamide] | > 10 | 
25 | NC(=O)c1nn(CC(=O)N2C[C@H](F)C[C@H]2C(=O)Nc2nc(-c3ccc4c(c3)CCCC4)cs2)c2ccc(-c3ccnnc3)cc12 [Compound 55, 1-(2-((2S,4R)-4-fluoro-2-(4-(5,6,7,8-tetrahydronaphthalen-2-yl)thiazol-2-ylcarbamoyl)pyrrolidin-1-yl)-2-oxoethyl)-5-(pyridazin-4-yl)-1H-indazole-3-carboxamide] | > 10 | 
26 | CC(=O)c1cn(CC(=O)N2C[C@H](F)C[C@H]2C(=O)Nc2cc(C)nc3nc(C(F)(F)F)nn23)c2ccc(-c3ccnnc3)cc12 [Compound 97, (2S,4R)-1-(2-(3-acetyl-5-(pyridazin-4-yl)-1H-indol-1-yl)acetyl)-4-fluoro-N-(5-methyl-2-(trifluoromethyl)-[1,2,4]triazolo[1,5-a]pyrimidin-7-yl)pyrrolidine-2-carboxamide] | > 10 | 
27 | NC(=O)c1nn(CC(=O)N2C[C@H](F)C[C@H]2C(=O)Nc2cc(O)ccn2)c2ccc(-c3ccnnc3)cc12 [Compound 154, 1-(2-((2S,4R)-4-fluoro-2-(4-hydroxypyridin-2-ylcarbamoyl)pyrrolidin-l-yl)-2-oxoethyl)-5-(pyridazin-4-yl)-1H-indazole-3-carboxamide] | > 10 | 
